# Results published in patent publication US20030017567A1, “Biological sample processing methods and compositions that include surfactants” (3M Innovative Properties Company, priority 2001, published 2003).
# Marks after values point to notes of the source that are not given here.
# Columns and labels:
# [1] = Laser stability / photobleaching of dye solution on repeated laser exposure; assay type: physicochemical; details: SDA 8080 (0.2 mg/mL), surfactant 20 wt %; 25 exposures
# Protocol: An 813-nm diode laser source at 1.2W (1.9A) (Opto Power Corp., Tucson, Ariz. ) was used to heat a 10μL volume of near-IR dye at a concentration (0.1 mg/mL for 785 WS, 0.2 mg/iL for SDA 8080) to yield a 35° C. rise in temperature. The laser was manually turned on long enough for the temperature in a 10-μL well to increase by 35° C. (1-3 seconds) and was manually turned off when that level was attained. The temperature data was obtained using a thermocouple in the well, and the transmittance data was obtained via a power meter whose signals were digitized and graphically interpreted.
# In another experiment, the 10 μL well was used to see if the dye/surfactant mixture could withstand laser cycling over a period of 30 cycles. The laser power was systematically varied from 60° C. to 94° C., 30 times.
# Unlike in Example 8, some dyes and dye/surfactant complexes undergo photodegradation when exposed to laser beam. […] Specifically, in the case of 785 WS/BRIJ-97, the addition of ascorbic acid (typically 5 mg/mL) helped reduce the amount of photobleaching from 100% to 20% after 30 cycles. In some circumstances, rapid/controlled photodegradation may be desired. […] This would allow DNA tags (fluorescent or vis/IR) to be monitored at the end of the PCR reaction.
# Vitamin E-TPGS has both surfactant as well as antioxidant properties.
# T4 DNA ligase = target: T1, T4 DNA ligase (Enterobacteria phage T4, UniProt P00970); assay: DNA ligation reaction, read out by E. coli DH10B transformant colonies and by PCR of ligated products; assay type: biochemical; details: 4 wt-% PLURONIC for 785 WS; 4 wt-% TWEEN-20 for SDA 8080; similar number of colonies as control
# T1 construct: purchased Life Technologies, Inc, Gaithesburg, Md
# T1 sequence (P00970 1-487): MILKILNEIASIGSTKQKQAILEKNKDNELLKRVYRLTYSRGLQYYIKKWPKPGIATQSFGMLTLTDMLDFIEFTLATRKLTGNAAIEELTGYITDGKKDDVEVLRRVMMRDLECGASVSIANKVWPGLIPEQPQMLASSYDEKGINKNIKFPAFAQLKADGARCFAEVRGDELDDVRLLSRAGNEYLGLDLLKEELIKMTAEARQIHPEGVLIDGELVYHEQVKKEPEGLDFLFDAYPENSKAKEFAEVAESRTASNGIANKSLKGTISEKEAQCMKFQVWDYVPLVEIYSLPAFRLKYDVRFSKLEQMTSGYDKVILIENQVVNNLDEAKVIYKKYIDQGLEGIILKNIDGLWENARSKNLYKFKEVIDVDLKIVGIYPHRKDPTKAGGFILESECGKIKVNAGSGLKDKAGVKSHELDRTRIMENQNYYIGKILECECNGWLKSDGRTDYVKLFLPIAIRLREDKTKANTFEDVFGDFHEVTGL
# Protocol: DNA ligation reactions were set up using T4 DNA ligase (Life Technologies, Inc, Gaithesburg, Md.) using a linearized plasmid template (pET21a, Novagen, Madison, Wis.) and a DNA insert. The reagents were used according to manufacturer's instructions. Escherichia coli DH10B competent cells were transformed with the ligated products and transformed cells were plated on Clondisc (Clontech, Palo Alto, Calif.) with appropriate antibiotic (ampicillin at 50 μg/mL). After incubation of plates at 37° C. for 16 hours to 18 hours, the resulting colonies were counted and analysed for plasmid by miniprep and restriction digest. […] In addition, all of the plasmids isolated from these plates contained the same insert as verified by restriction digest and DNA sequencing.
# In addition to transformation and plating with the ligation mix, the ligated products were used as DNA template in a PCR reaction containing primers flanking the insert DNA on the plasmid template (T7 promoter and T7 terminator primers, Novagen).
# [2] = target: T2, AMPLITAQ DNA polymerase (Taq polymerase) (Thermus aquaticus, UniProt P19821); assay: PCR amplification of PERV protease fragment (327 bp) in presence of dye/surfactant; product on agarose gel or quantitated with Agilent 2100 Bioanalyzer; assay type: biochemical
# T2 construct: purchased Applied Biosystems, Foster City, Calif
# T2 sequence (P19821 whole entry, the tested form may be a part): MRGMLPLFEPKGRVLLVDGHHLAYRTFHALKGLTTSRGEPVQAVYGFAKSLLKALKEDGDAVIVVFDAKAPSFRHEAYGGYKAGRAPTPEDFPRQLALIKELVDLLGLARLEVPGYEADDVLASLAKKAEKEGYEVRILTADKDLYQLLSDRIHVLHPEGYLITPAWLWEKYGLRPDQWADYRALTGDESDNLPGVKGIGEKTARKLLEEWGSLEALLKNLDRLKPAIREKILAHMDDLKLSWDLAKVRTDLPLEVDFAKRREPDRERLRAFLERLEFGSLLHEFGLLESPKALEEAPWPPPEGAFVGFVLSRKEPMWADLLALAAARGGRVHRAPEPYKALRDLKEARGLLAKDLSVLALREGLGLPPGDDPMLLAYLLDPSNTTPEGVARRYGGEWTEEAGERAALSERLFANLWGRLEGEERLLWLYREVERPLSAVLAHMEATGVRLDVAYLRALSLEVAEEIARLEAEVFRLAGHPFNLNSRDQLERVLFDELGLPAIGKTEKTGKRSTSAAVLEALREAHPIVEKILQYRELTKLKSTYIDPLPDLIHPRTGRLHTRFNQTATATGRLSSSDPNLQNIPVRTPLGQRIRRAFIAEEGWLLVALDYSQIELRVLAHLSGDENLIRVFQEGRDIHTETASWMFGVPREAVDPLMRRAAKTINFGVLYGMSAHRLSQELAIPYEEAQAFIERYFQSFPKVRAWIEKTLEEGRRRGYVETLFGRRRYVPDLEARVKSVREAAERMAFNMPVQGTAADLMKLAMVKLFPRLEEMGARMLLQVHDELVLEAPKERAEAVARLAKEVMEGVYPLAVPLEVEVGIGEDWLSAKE
# Protocol: Typically, a fresh stock solution of 5 milligrams (mg) of a water-insoluble near-infrared dye (NIR dye) was dissolved in 50 microliters (μL) of dimethylsulfoxide (DMSO) and brought up in water to a final volume of 1 milliliter (mL). This was then diluted out to various concentrations of dye. The diluted dye (typically 0.2 mg/mL) was then added to a surfactant solution (typically 4 wt-%) to form a complex. The complex was added to a PCR reaction.
# PCR reactions were set up for a conserved sequence (327 bp) in the protease region of the genome of porcine endogenous retrovirus using a plasmid containing the PERV protease fragment, a forward primer and a reverse primer designed using a primer express program from Applied Biosystems, and AMPLITAQ DNA polymerase cocktail (commercially available from Applied Biosystems, Foster City, Calif.) and cycled in a thermocycler (9700, Applied Biosystems). The PCR reactions were typically carried out in 25-μL volumes. The NIR dye/surfactant mixture was added to the PCR cocktail to give the desired concentration of dye and surfactant in a total volume of 25 μL. A typical PCR cocktail contains 10x buffer, 2.5 μL; dNTPs, 2.0 μL (200 μM of each); forward primer, 0.5 μL (200 nM); reverse primer, 0.5 μL (200 nM); template DNA, 1.0 (1 ng/μL); Amplitaq, 0.25 μL (1.25 units); sterile water, 18.25 μL.
# The products of PCR reactions were run on 1% agarose gel containing ethidium bromide and visualized using an ALPHA IMAGER (Alpha Innotech Corp., San Leandro, Calif.). […] However, a higher concentration of dye (0.1 mg/mL) for effective heating was needed. Thus, for all further PCR experiments, a dye concentration of 0.1 mg/mL or higher was used. […] Taq polymerase was tested from different manufacturers (Promega Corp., Madison, Wis.; Roche Biochemicals, Indianapolis, Ind.; Eppendorf, Scientific Inc., Westbury, N.Y.; Sigma, St. Louis, Mo.) and all the Taq polymerases were inhibited by 785 WS and SDA 8080.
# In order to find out the optimum concentration of surfactant for PCR with NIR dye (785 WS and SDA 8080), the surfactant concentration in PCR reaction was varied from 0.1 wt-% to 4 wt-%. The PCR product formed was quantitated using DNA 7500 Labchip kit in Agilent 2100 Bioanalyzer (Agilent Inc, Paloalto, Calif.). The results shown in Table 3 indicate that increasing the concentration of surfactant relative to dye assists in the formation of PCR product.
# A variety of dyes (NIR dyes such as IR782, IR768, SDA 2141, SDA8327, IR 830 WS, fluorescent dyes like oligreen and visible dyes like dichlorophenol, indophenol, saffranin, crystal violet, and commercially available food coloring) at typical concentrations of 0.1 or 0.2 mg/mL were allowed to interact with 4 wt-% PLURONIC F127 and each mixture was added to the PCR cocktail. The reaction was set up to amplify PERV protease fragment as described in Example 2 and the products of the reaction were analyzed by agarose gel electrophoresis.
# Taq polymerase = Taq polymerase (Thermus aquaticus, UniProt P19821); assay: Quantitative PCR using TaqMan probes or Sybr green; assay type: biochemical; details: with SDA 8080 0.2 mg/mL or 785 WS 0.1 mg/mL, both cases
# Taq polymerase, sequence (P19821 whole entry): as the sequence (P19821 whole entry, the tested form may be a part) above
smiles,measurement,setting,value
"CCCCCCCCCCCC(=O)OCCOCCOCCOCCOCCOCCOCCOCCOCCOCCOCCOCCOCCOCCOCCOCCOCCOCCOCCOCCOCC(OCCOCCOCCOCCOCCOCCOCCOCCOCCOCCOCCOCCOCCOCCOCCOCCOCCOCCOCCOCCO)C1OCC(OCCOCCOCCOCCOCCOCCOCCOCCOCCOCCOCCOCCOCCOCCOCCOCCOCCOCCOCCOCCO)C1OCCOCCOCCOCCOCCOCCOCCOCCOCCOCCOCCOCCOCCOCCOCCOCCOCCOCCOCCOCCO (stereo not shown) [TWEEN-20, Polyoxyethylene (20) sorbitan monolaurate]",Laser Stability,[1],+ (less than a 20% degradation in dye absorbance over a period of 25 exposures)
same,effect of surfactant on dye-inhibited ligase activity (colonies),T4 DNA ligase,restored the activity of ligase
same,PCR Product,"[2]; 785 WS 0.1 mg/mL, surfactant 0.1 wt %",0 ng/µL
same,PCR Product,"[2]; 785 WS 0.1 mg/mL, surfactant 0.5 wt %",12.7 ng/µL
same,PCR Product,"[2]; 785 WS 0.1 mg/mL, surfactant 1 wt %",19 ng/µL
same,PCR Product,"[2]; 785 WS 0.1 mg/mL, surfactant 2 wt %",23.7 ng/µL
same,PCR Product,"[2]; 785 WS 0.1 mg/mL, surfactant 4 wt %",24 ng/µL
same,PCR Product,"[2]; SDA 8080 0.2 mg/mL, surfactant 0.1 wt %",27 ng/µL
same,PCR Product,"[2]; SDA 8080 0.2 mg/mL, surfactant 0.5 wt %",29 ng/µL
same,PCR Product,"[2]; SDA 8080 0.2 mg/mL, surfactant 1 wt %",31 ng/µL
same,PCR Product,"[2]; SDA 8080 0.2 mg/mL, surfactant 2 wt %",22 ng/µL
same,PCR Product,"[2]; SDA 8080 0.2 mg/mL, surfactant 4 wt %",19 ng/µL
same,effect of addition of surfactant on dye-inhibited Taq polymerase,[2]; Taq polymerases inhibited by 785 WS and SDA 8080,restored the activity of the enzyme
same,PCR Product,"[2]; surfactant 4 wt %, 785 WS 0 mg/mL (no dye), data from a different experiment under identical PCR conditions",28* ng/μL
same,PCR Product,"[2]; surfactant 4 wt %, SDA 8080 0 mg/mL (no dye), data from a different experiment under identical PCR conditions",28* ng/μL
same,effect of addition of surfactant on dye-inhibited quantitative PCR assay,Taq polymerase,restored the activity of the assay
